Experimental data published in US11584775B2, “C4-modified oleanolic acid derivatives for inhibition of IL-17 and other uses” (REATA PHARMACEUTICALS, INC., priority 2015, dated 2023).

Tests used:
[1] = target: T1, human RORγ (Homo sapiens, UniProt P51449); assay: RORγ assay (GAL4-RORγ hybrid luciferase reporter, inverse-agonist activity); type: cell-based; conditions: GAL4-RORγ hybrid reporter cells, 23 hours
T1 sequence (P51449 269-508 limits assumed): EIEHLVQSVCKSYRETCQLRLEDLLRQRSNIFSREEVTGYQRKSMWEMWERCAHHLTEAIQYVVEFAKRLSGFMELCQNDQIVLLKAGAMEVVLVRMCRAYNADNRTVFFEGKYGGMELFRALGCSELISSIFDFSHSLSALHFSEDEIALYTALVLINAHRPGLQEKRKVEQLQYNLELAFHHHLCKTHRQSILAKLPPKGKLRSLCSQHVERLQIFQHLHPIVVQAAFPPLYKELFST
Summary of the method: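 Human cell line expressing GAL4-DBD/RORγ hybrid with UAS-driven luciferase, treated in triplicate with compound (0.4–200 nM or 2–1000 nM) for 23 h at 37 °C. Luminescence normalized to DMSO; viability measured in parallel by multiplex assay. IC50 for RORγ and viability by variable-slope nonlinear regression.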

[2] = tested on: IFNγ-induced Nitric Oxide production; assay: Nitric oxide production assay in RAW 264.7 mouse macrophages; type: cell-based; conditions: RAW264.7, suppression of IFNγ-induced NO production normalized to cell viability (WST-1), RAW 264.7, 24 hours IFNγ
Summary of the method: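 Cells pre-treated 2 h with compound (0.4-200 nM or 2-1000 nM) in RPMI 1640 + 0.5% FBS, then stimulated with recombinant mouse IFNγ for 24 h at 37 °C. Nitrite measured by Griess reagent, viability by WST-1; IC50 from NO suppression normalized to viability and to DMSO/IFNγ controls.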

[3] = tested on: hIL17; assay: IL-17 release from differentiated primary human T-cells (IL-17A HTRF assay); type: cell-based; conditions: inhibition of IL-17A levels; primary human CD4+ T cells differentiated into Th17 cells, 46-hour incubation
Summary of the method: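 Cryopreserved primary human CD4+ T cells were activated with anti-CD3/CD28 beads and driven to Th17 with TGF-β, IL-6, IL-23 and IL-1β in the presence of compound (2-500 nM or 4-1000 nM) for 46 h at 37° C. Supernatant IL-17A was quantified by HTRF against a standard curve and normalized to DMSO. IC50s came from variable-slope fits, with viability read by CyQuant.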

[4] = tested on: NRF2; assay: AREc32 luciferase reporter assay; type: cell-based, human; conditions: EC2×: concentration required to increase GST ARE Luciferase reporter activity by 2-fold; AREc32 cells, 19 hours
Summary of the method: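 AREc32 cells (MCF-7 stably carrying eight rat GSTA2 ARE copies driving firefly luciferase) treated 19 h with compound (0.4–200 nM or 2–1000 nM), triplicate. Luminescence normalized to DMSO as fold-induction; variable-slope fit capped at 50-fold; EC2× = concentration giving 2-fold induction.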

SMILES | IC50 [1] | IC50 [2] | IC50 [3] | EC2x: concentration giving 2-fold induction of ARE luciferase reporter [4]
Cc1noc([C@]23CCC(C)(C)C[C@H]2[C@H]2C(=O)C=C4[C@@]5(C)C=C(C#N)C(=O)[C@@](C)(CO)[C@@H]5CC[C@@]4(C)[C@]2(C)CC3)n1 [Compound T45, (4R,4aR,6aS,6bR,8aS,12aS,12bR,14bS)-4-(hydroxymethyl)-4,6a,6b, 11,11,14b-hexamethyl-8a-(3-methyl-1,2,4-oxadiazol-5-yl)-3,13-dioxo-3,4,4a,5,6,6a,6b,7,8,8a,9,10,11,12,12a,12b,13,14b-octadecahydropicene-2-carbonitrile] | 0.165 µM | 0.0069 µM | 0.017 µM | 47 nM
CC(=O)OC[C@]1(C)C(=O)C(C#N)=C[C@]2(C)C3=CC(=O)[C@@H]4[C@@H]5CC(C)(C)CC[C@]5(c5nc(C)no5)CC[C@@]4(C)[C@]3(C)CC[C@H]21 [Compound T46, ((4R,4aR,6aS,6bR,8aS,12aS,12bR,14bS)-2-cyano-4,6a,6b, 11,11,14b-hexamethyl-8a-(3-methyl-1,2,4-oxadiazol-5-yl)-3,13-dioxo-3,4,4a,5,6,6a,6b,7,8,8a,9,10,11,12,12a,12b,13,14b-octadecahydropicen-4-yl)methyl acetate] | 0.115 µM | 0.101 µM | 0.013 µM | 366 nM
Cc1noc([C@]23CCC(C)(C)C[C@H]2[C@H]2C(=O)C=C4[C@@]5(C)C=C(C#N)C(=O)[C@@](C)(O)[C@@H]5CC[C@@]4(C)[C@]2(C)CC3)n1 [Compound T47, (4S,4aR,6aS,6bR,8aS,12aS,12bR,14bS)-4-hydroxy-4,6a,6b, 11,11,14b-hexamethyl-8a-(3-methyl-1,2,4-oxadiazol-5-yl)-3,13-dioxo-3,4,4a,5,6,6a,6b,7,8,8a,9,10,11,12,12a,12b,13,14b-octadecahydropicene-2-carbonitrile] | 0.139 µM | 0.0358 µM | 0.017 µM | 79 nM
C[C@H](O)[C@]1(C)C(=O)C(C#N)=C[C@]2(C)C3=CC(=O)[C@]45OC(=O)[C@@]6(CCC(C)(C)C[C@H]64)CC[C@@]5(C)[C@]3(C)CC[C@@H]12 [Compound T48, (4R,4aR,6aR,6bS,8aS,12aR,12bS,14bS)-4-((S)-1-hydroxyethyl)-4,6a,6b, 11,11,14b-hexamethyl-3,13,16-trioxo-4,4a,5,6,6a,6b,7,8,10,11,12,12a,13,14b-tetradecahydro-3H,9H-12b,8a-(epoxymethano)picene-2-carbonitrile] | 0.162 µM | 0.0012 µM | 0.013 µM | 3 nM
Cc1noc([C@]23CCC(C)(C)C[C@H]2[C@H]2C(=O)C=C4[C@@]5(C)[C@H]6O[C@@]6(C#N)C(=O)[C@@](C)(O)[C@@H]5CC[C@@]4(C)[C@]2(C)CC3)n1 [Compound T49, (1 aR,3S,3aR,5aS,5bR,7aS,11aS,11bR,13bS,13cR)-3-hydroxy-3,5a,5b, 10,10,13b-hexamethyl-7a-(3-methyl-1,2,4-oxadiazol-5-yl)-2,12-dioxo-3,3a,4,5,5a,5b,6,7,7a,8,9,10,11,11a,11b,12,13b,13c-octadecahydropiceno[1,2-b]oxirene-1a(2H)-carbonitrile] | 0.608 µM | 0.0375 µM | 0.018 µM | 244 nM
CC1(C)CC[C@@]23CC[C@@]4(C)[C@]5(C)CC[C@@H]6[C@@](C)(C5=CC(=O)[C@]4(OC2=O)[C@@H]3C1)[C@H]1O[C@@]1(C#N)C(=O)[C@@]6(C)O [Compound T50, (1aR,3S,3aR,5aR,5bS,7aS,11aR,11bS,13bS,13cR)-3-hydroxy-3,5a,5b,10,10,13b-hexamethyl-2,12,15-trioxo-3,3a,4,5,5a,6,7,9,10,11,11a,12,13b,13c-tetradecahydro-2H, 8H-11b,7a-(epoxymethano)piceno[1,2-b]oxirene-1a(5bH)-carbonitrile] | 1.04 µM | 0.0654 µM | 0.011 µM | 162 nM
CC1(C)CC[C@]2(NC(=O)C(C)(F)F)CC[C@]3(C)[C@H](C(=O)C=C4[C@@]5(C)[C@H]6O[C@@]6(C#N)C(=O)[C@@](C)(O)[C@@H]5CC[C@]43C)[C@@H]2C1 [Compound T51, N-((1aR,3S,3aR,5aS,5bR,7aS,11aS,11bR,13bS,13cR)-1a-cyano-3-hydroxy-3,5a,5b,10,10,13b-hexamethyl-2,12-dioxo-1a,3,3a,4,5,5a,5b,6,7,8,9,10,11,11a,11b,12,13b,13c-octadecahydropiceno[1,2-b]oxiren-7a(2H)-yl)-2,2-difluoropropanamide] | 1.69 µM | 0.119 µM | 0.139 µM | 840 nM
